Test results reported in article PMC11842024, “Reversible male contraception by targeted inhibition of serine/threonine kinase 33” (Science (New York, N.Y.), 2024).

Experiments:
CLK4 [1] = target: T1, CLK4 (Homo sapiens, UniProt Q9HAZ1); experiment: LanthaScreen binding assay (ThermoFisher SelectScreen); design: purchased SelectScreen Services (ThermoFisher)
Text: (§1) In vitro biochemical assays. Several small molecule assays were outsourced to SelectScreen Services (ThermoFisher) for STK33 and for off-target kinases (data sets are available on demand).
(§2) These assays are LanthaScreen (binding assay) and Z’-LYTE (activity assay). Dose-responses were done with at least 5 different concentrations in duplicates, and parameters were optimized by calculations described below and provided with standard errors.
(§3) Calculation of Kd values for kinase inhibitors that bind to the ATP pocket of a kinase from LanthaScreen binding data. DynaFit (71) was used to fit complex equilibria where a tracer is displaced by a dilution series of a kinase inhibitor. This method relies on the concentration of inhibitor, as well as the concentration of kinase and tracer, and Kd of the tracer. The latter three parameters are tabulated by ThermoFisher for each kinase in the LanthaScreen assay panel. […]

CLK2 [2] = target: T2, CLK2 (Homo sapiens, UniProt P49760); experiment: Z'-LYTE activity assay (ThermoFisher SelectScreen); assay type: biochemical; design: purchased SelectScreen Services (ThermoFisher); conditions: [ATP] = Kmapp
T2 sequence (P49760 whole entry): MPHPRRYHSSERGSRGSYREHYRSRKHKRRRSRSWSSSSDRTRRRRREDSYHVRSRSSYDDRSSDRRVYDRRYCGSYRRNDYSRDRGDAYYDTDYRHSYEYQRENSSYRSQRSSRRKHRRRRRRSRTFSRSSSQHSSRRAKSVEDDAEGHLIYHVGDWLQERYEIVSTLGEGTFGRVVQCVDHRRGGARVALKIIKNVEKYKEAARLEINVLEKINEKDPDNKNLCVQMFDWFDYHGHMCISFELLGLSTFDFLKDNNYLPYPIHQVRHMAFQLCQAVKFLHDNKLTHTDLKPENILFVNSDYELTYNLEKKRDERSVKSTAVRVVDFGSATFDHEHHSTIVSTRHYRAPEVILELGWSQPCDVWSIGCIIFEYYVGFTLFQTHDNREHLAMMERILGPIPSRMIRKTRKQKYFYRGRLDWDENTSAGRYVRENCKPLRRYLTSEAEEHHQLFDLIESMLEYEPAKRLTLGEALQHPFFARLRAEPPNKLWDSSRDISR
Text: as §1
(§4) These assays are LanthaScreen (binding assay) and Z’-LYTE (activity assay). Dose-responses were done with at least 5 different concentrations in duplicates, and parameters were optimized by calculations described below and provided with standard errors. […]
(§5) Calculation of Ki values for kinase inhibitors from Z’-LYTE inhibition data. The Morrison equation with [ATP] = Kmapp for competitive inhibition (GraphPad Prism 7, San Diego, CA) was used to get Ki values. Since Kd and Ki values are defined the same way, in other words, Kd = [E] [I] / [EI] = Ki, Kd and Ki values can be compared. […]

CLK1 [3] = target: T3, CLK1 (Homo sapiens, UniProt P49759); experiment: Z'-LYTE activity assay (ThermoFisher SelectScreen); assay type: biochemical; design: purchased SelectScreen Services (ThermoFisher); conditions: [ATP] = Kmapp
T3 sequence (P49759 whole entry): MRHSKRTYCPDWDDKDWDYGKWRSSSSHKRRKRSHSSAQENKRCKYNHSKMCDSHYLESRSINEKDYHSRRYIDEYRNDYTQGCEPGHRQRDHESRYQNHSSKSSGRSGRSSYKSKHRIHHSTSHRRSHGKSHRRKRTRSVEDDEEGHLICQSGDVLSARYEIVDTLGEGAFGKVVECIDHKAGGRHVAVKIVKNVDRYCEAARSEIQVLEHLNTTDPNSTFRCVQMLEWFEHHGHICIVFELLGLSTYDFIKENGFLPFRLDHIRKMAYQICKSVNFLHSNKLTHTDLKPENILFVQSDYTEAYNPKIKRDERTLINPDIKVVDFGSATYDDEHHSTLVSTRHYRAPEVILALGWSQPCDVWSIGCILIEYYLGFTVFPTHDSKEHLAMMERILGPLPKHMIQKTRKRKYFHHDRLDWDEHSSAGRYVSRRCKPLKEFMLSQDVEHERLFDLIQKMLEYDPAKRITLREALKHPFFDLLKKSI
Text: as §1, §4, §5

RET [4] = target: T4, RET (Homo sapiens, UniProt P07949); experiment: Z'-LYTE activity assay (ThermoFisher SelectScreen); assay type: biochemical; design: purchased SelectScreen Services (ThermoFisher); conditions: [ATP] = Kmapp
T4 sequence (P07949 29-1114): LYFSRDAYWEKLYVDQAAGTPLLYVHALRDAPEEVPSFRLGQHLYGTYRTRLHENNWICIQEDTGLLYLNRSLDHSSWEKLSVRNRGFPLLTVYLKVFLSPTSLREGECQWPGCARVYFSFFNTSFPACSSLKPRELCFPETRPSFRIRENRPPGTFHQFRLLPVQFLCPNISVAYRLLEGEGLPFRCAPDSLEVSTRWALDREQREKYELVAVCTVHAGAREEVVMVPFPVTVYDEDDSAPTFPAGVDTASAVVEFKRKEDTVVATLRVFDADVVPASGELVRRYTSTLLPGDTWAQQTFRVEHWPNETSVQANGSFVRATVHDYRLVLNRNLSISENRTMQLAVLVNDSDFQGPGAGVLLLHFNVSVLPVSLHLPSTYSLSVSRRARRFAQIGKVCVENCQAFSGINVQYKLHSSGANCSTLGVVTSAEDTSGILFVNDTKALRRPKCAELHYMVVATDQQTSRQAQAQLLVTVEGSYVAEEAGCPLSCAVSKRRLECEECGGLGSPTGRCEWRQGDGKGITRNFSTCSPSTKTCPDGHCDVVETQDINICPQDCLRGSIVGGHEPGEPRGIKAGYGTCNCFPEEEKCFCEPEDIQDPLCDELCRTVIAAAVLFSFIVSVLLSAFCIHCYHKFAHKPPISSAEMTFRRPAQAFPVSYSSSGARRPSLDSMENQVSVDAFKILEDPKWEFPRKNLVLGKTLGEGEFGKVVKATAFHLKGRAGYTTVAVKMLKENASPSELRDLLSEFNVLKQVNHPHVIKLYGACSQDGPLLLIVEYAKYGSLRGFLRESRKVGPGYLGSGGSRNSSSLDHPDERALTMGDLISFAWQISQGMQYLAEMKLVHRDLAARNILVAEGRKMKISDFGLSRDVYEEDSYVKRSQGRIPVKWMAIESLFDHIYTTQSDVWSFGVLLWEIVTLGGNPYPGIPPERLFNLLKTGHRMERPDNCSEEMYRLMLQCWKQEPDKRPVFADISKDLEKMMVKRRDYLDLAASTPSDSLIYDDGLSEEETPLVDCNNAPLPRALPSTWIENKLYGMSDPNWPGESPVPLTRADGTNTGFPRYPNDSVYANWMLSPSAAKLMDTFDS
Text: as §1, §4, §5

CLK4 [5] = target: T1, CLK4; experiment: NanoBRET target engagement intracellular kinase assay; assay type: cell-based; design: host or cells: HEK293 (HEK293T cultured); conditions: for IC50: HEK293 cells, 2 hours incubation; for Fold NanoBRET IC50 CLK4 over STK33 (in parentheses): selectivity vs STK33
Experimental: (§6) NanoBRET Target Engagement intracellular kinase assay. HEK293T cells were cultured in […]
(§7) The cell line underwent authentication by short tandem repeat (STR) profiling at Cytogenetics and Cell Authentication Core (CCAC) at MD Anderson Cancer Center. NanoBRET Target Engagement intracellular kinase assay, K-10 assay (Cat. # N2641), K-9 assay (Cat. # N2631), transfection reagent FuGENE HD (Cat. # E2311), transfection carrier DNA (Cat. # E4881), NanoLuc-STK33 fusion vector (Cat. # NV2111), NanoLuc-RET fusion vector (Cat. # NV1951), NanoLuc-CLK1 fusion vector (Cat. # NV1131), NanoLuc-CLK2 fusion vector (Cat. # NV1141), and NanoLuc-CLK4 fusion vector (Cat. # NV1151) were purchased from Promega. The measurement of test compound engagement with cellular target protein was performed in a 384-well format according to manufacturer’s instructions. HEK293 cells were transiently transfected with NanoLuc (STK33, RET, CLK1, CLK2, and CLK4) fusion vectors. After 36 hours of transfection, cells were treated with a fixed concentration of tracer (recommended by Promega) followed by compounds (inhibitors) for 2 hours of incubation. To determine the test compound […]
(§8) 0.4 nM at a fixed tracer concentration. Staurosporine was measured in parallel as a positive control.
(§9) Freshly prepared NanoBRET Nano-Glo substrate plus extracellular NanoLuc inhibitor was then added to initiate the subsequent bioluminescence resonance energy transfer (BRET) measurements using a CLARIOstar Plus BMG LABTECH plate reader. Data analysis was done by measuring the ratio of acceptor emission to donor emission (BRET ratio) and normalized by subtracting no-tracer-control-background. IC50 values were obtained by nonlinear regression using a four-parameter equation in GraphPad Prism 7 (San Diego, CA).

STK33 [6] = target: T5, STK33 (Homo sapiens, UniProt Q9BYT3); experiment: as above; assay type: cell-based; design: host or cells: HEK293 (HEK293T cultured); conditions: for IC50: HEK293 cells, 2 hours incubation
T5 sequence (Q9BYT3 whole entry): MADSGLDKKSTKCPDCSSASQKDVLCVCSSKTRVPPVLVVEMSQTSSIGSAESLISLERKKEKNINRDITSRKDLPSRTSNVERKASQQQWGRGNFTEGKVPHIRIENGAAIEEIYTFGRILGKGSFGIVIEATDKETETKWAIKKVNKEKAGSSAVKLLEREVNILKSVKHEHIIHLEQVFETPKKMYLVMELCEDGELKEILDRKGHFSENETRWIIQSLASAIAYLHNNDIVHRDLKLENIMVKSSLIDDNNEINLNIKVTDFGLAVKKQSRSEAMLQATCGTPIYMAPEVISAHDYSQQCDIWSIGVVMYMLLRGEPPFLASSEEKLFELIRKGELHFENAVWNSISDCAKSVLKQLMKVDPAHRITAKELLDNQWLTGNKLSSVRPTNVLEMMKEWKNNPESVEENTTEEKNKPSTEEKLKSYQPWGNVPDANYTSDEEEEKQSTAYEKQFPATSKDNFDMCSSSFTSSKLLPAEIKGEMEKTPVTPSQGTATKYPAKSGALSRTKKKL
Experimental: as §6, §7, §8, §9

CLK2 [7] = target: T2, CLK2; experiment: as above; assay type: cell-based; design: host or cells: HEK293 (HEK293T cultured); conditions: for IC50: HEK293 cells, 2 hours incubation; for Fold NanoBRET IC50 CLK2 over STK33 (in parentheses): selectivity vs STK33
Experimental: as §6, §7, §8, §9

CLK1 [8] = target: T3, CLK1; experiment: as above; assay type: cell-based; design: host or cells: HEK293 (HEK293T cultured); conditions: for IC50: HEK293 cells, 2 hours incubation; for Fold NanoBRET IC50 CLK1 over STK33 (in parentheses): selectivity vs STK33
Experimental: as §6, §7, §8, §9

RET [9] = target: T4, RET; experiment: as above; assay type: cell-based; design: host or cells: HEK293 (HEK293T cultured); conditions: for IC50: HEK293 cells, 2 hours incubation; for Fold NanoBRET IC50 RET over STK33 (in parentheses): selectivity vs STK33
Experimental: as §6, §7, §8, §9

[10] = Metabolic stability assay in liver microsomes (MLM); assay type: in vitro ADME, mouse; conditions: mouse, liver microsomes, 2.0 µM, 0.5 mg protein/mL, NADPH; data >60 min is an extrapolated estimate; read-out: Metabolic stability MLM, t1/2
Experimental: (§10) Metabolic stability assay in liver microsomes. The stabilities of CDD-2110, CDD-2211, CDD-2212, CDD-2807, and CDD-3348 in liver microsomes with/without Uridine Diphosphate Glucuronic Acid (UDP-GA, a cofactor of UDP-glucuronosyltransferases) were performed and half-life was calculated as previously reported (36). Briefly, each CDD compound (2.0 μM) was incubated in the mouse or human liver microsomes (0.5 mg protein/mL) at 37°C in 1× PBS fortified with NADPH (1.0 mM) and with/without UDP-GA (2.5 mM). Alamethicin (25 µg/mL) as a pore forming agent was used for the glucuronidation (Table S2A). The samples were collected at specific time-points 0, 30, and 60 min in duplicate. The reactions were terminated by adding equivalent volume of ice-cold methanol (CH3OH) and vortexed. After centrifugation at 15000 g for 10 min, 3.0 μL of the supernatant was analyzed by Thermo TSQ Quantis MS coupled with a Thermo Vanquish UHPLC (San Jose, CA) equipped with a Luna C18 column (1 mm × 50 mm, 1.6 µm, Phenomenex, Torrance, CA). The column temperature was maintained at 40°C. CDD-2807 was monitored under the selected reaction monitoring (SRM) mode coupled with a positive electrospray ionization (ESI) source. The SRM ion pairs were 447→321 for CDD-2807.

STK33 [11] = target: T5, STK33; experiment: LanthaScreen binding assay (ThermoFisher SelectScreen); design: purchased SelectScreen Services (ThermoFisher)
Text: as §1, §2, §3
Since Kd and Ki values are defined the same way, in other words, Kd = [E] [I] / [EI] = Ki, Kd and Ki values can be compared. […]

[12] = Metabolic stability assay in liver microsomes (HLM); assay type: in vitro ADME, human; conditions: human, liver microsomes, 2.0 µM, 0.5 mg protein/mL, NADPH; data >60 min is an extrapolated estimate; read-out: Metabolic stability HLM, t1/2
Experimental: as §10

T1 sequence (Q9HAZ1 whole entry): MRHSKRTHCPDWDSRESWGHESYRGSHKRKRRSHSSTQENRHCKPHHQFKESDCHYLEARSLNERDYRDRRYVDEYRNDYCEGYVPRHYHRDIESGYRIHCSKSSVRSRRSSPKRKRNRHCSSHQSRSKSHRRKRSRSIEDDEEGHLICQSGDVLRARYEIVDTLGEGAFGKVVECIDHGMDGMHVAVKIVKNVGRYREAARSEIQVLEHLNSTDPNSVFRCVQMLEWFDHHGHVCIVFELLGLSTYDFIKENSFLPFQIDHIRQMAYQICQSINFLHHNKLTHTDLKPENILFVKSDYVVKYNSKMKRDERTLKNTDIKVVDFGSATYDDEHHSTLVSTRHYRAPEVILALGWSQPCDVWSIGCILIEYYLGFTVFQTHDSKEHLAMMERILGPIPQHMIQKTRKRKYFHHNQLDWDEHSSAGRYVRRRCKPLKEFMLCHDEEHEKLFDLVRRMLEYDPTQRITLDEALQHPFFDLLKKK

Compound	Kd (CLK4 [1])	Ki (CLK2 [2])	Ki (CLK1 [3])	Ki (RET [4])	IC50 (CLK4 [5])	Fold NanoBRET IC50 CLK4 over STK33 (in parentheses) (CLK4 [5])	selectivity toward STK33 compared to CLK1, CLK2, CLK4, and RET (STK33 [6])	IC50 (STK33 [6])	fold more potent than published STK33 inhibitors in cellular assays (STK33 [6]; vs compound 1, ML281, BRD8899)	IC50 (CLK2 [7])	Fold NanoBRET IC50 CLK2 over STK33 (in parentheses) (CLK2 [7])	IC50 (CLK1 [8])	Fold NanoBRET IC50 CLK1 over STK33 (in parentheses) (CLK1 [8])	IC50 (RET [9])	Fold NanoBRET IC50 RET over STK33 (in parentheses) (RET [9])	half-life at 2 µM [10]	Kd (STK33 [11])	fold more potent than published STK33 inhibitors in biochemical assays (STK33 [11]; vs compound 1, ML281, BRD8899)	half-life at 2 µM [12]
ML281 [reference compound]	> 1000 nM	> 1000 nM	> 1000 nM	> 1000 nM															
CNC(=O)C1CCN(C2CCN(C(=O)c3ccc4[nH]nc(C#Cc5ccccc5-c5ccccc5)c4c3)C2)CC1 (centres unmarked) [CDD-2110]	9.6 ± 1.2 nM	27 ± 6.6 nM	234 ± 18 nM	3.1 ± 0.3 nM	544 nM	14 X	> 10 fold	38 nM	20- to 310 fold	917 nM	24 X	1210 nM	32 X	746 nM	20 X	25 min	0.1 nM	12- to 400 fold	10 min
O=C(c1ccc2[nH]nc(C#Cc3ccccc3-c3ccccc3)c2c1)N1CCC2(CCCNC2)C1 (centres unmarked) [Compound S4]								517 nM											
CN(C)C1CCN(C(=O)c2ccc3[nH]nc(C#Cc4cccc(-c5ccccc5)c4)c3c2)C1 (centres unmarked) [Compound S9]								289 nM									9.9 ± 2.3 nM		
CN(C)[C@@H]1CCN(C(=O)c2ccc3[nH]nc(C#Cc4ccccc4-c4ccccc4)c3c2)C1 [CDD-2211]	2.5 ± 0.2 nM	5.4 ± 0.4 nM	38.8 ± 5.5 nM	0.47 ± 0.05 nM	187 nM	37 X	> 10 fold	5 nM		48 nM	10 X	115 nM	23 X	78 nM	16 X	7 min	0.018 nM		10 min
CNC(=O)CCC1CCN(C(=O)C2CCN(C3CCN(C(=O)c4ccc5[nH]nc(C#Cc6ccccc6-c6ccccc6)c5c4)C3)CC2)CC1 (centres unmarked) [CDD-3348]	26.2 ± 1.5 nM	58.3 ± 3.3 nM	477 ± 34 nM	5.6 ± 0.5 nM	3850 nM	23 X	> 10 fold	169 nM		2530 nM	15 X	6730 nM	40 X	6410 nM	38 X	14 min	0.06 nM		13 min
CN(C)[C@H]1CCN(C(=O)c2ccc3[nH]nc(C#Cc4ccccc4-c4ccccc4)c3c2)C1 [CDD-2212]	21.5 ± 1 nM	54.8 ± 3 nM	507 ± 36 nM	2 ± 1.4 nM	5880 nM	6 X		999 nM		1550 nM	1.5 X	3230 nM	3 X	1090 nM	1.1 X	9 min	1.9 nM		8 min
O=C(c1ccc2[nH]nc(C#Cc3ccccc3-c3ccccc3)c2c1)N1CCC2(CCNCC2)C1 [Compound S5]								1290 nM											
